What follows are cell lines tested with Cc1cc([C@@H](C)Nc2ccccc2C(=O)O)c2nc(N3CCOCC3)cc(=O)n2c1 [AZD6482] + CC1(C)CCC(c2ccc(Cl)cc2)=C(CN2CCN(c3ccc(C(=O)NS(=O)(=O)c4ccc(N[C@H](CCN5CCOCC5)CSc5ccccc5)c(S(=O)(=O)C(F)(F)F)c4)cc3)CC2)C1 [Navitoclax] (partner 0.5 µM) (assay: relative viability (nuclei count vs DMSO), 5 days (fraction); higher = more cells survive). Conditions: first compound 0.08 µM.
Outline: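 After 5 days of treatment, lung cancer cells in 1536-well plates were fixed and stained in a single step (final 0.05% Triton X-100, 1% formaldehyde, 1 ug/ml Hoechst) and their nuclei counted on 4× images. Treatment had been applied by pin tool the day after seeding as one drug alone or as a fixed anchor-drug dose with five library-drug doses (not always all listed) in √10 steps. Relative viability is the nuclei count of treated wells divided by that of vehicle wells, and values are medians of duplicate plates.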

| Cell Line | relative viability |
| --- | --- |
| LOU-NH91 | 0.579 |
| ChaGo-K-1 | 1.09 |
| NCI-H2170 | 0.502 |
| NCI-H2405 | 0.488 |
| HCC-44 | 0.758 |
| A549 | 1.07 |
| NCI-H1299 | 0.982 |
| NCI-H1792 | 0.508 |

Same assay, conditions: first compound 0.253 µM

| Cell Line | relative viability |
| --- | --- |
| NCI-H727 | 0.455 |
| EBC-1 | 0.318 |
| NCI-H1703 | 0.865 |
| NCI-H1993 | 0.784 |
| SW 1573 | 0.86 |
| NCI-H838 | 1.08 |
| NCI-H520 | 0.785 |
| NCI-H2126 | 0.671 |
| EMC-BAC-2 | 1.08 |
| NCI-H2085 | 0.585 |
| Calu-6 | 0.699 |
| HCC-366 | 1.01 |
| NCI-H1666 | 0.846 |
| NCI-H596 | 0.827 |
| LK-2 | 0.716 |
| NCI-H2087 | 0.909 |
| SK-MES-1 | 1.17 |
| H3255 | 0.523 |
| COR-L23 | 1.02 |
| COR-L 105 | 0.648 |
| IA-LM | 0.979 |
| LOU-NH91 | 0.651 |
| NCI-H2170 | 0.558 |
| HCC-44 | 0.964 |
| A549 | 1.25 |
| NCI-H1299 | 1.04 |
| NCI-H1792 | 0.511 |

Same assay, conditions: first compound 0.8 µM

| Cell Line | relative viability |
| --- | --- |
| NCI-H727 | 0.421 |
| NCI-H1650 | 0.747 |
| EBC-1 | 0.322 |
| NCI-H1703 | 0.822 |
| SW 1573 | 0.941 |
| NCI-H838 | 1.05 |
| NCI-H520 | 0.703 |
| NCI-H2126 | 0.727 |
| EMC-BAC-2 | 1.12 |
| NCI-H2085 | 0.538 |
| Calu-6 | 0.754 |
| HCC-366 | 1.11 |
| NCI-H1666 | 0.706 |
| NCI-H596 | 0.925 |
| LK-2 | 0.932 |
| NCI-H2087 | 0.966 |
| SK-MES-1 | 0.923 |
| H3255 | 0.352 |
| COR-L23 | 1.23 |
| COR-L 105 | 0.747 |
| IA-LM | 0.977 |
| LOU-NH91 | 0.659 |
| ChaGo-K-1 | 1.18 |
| NCI-H2170 | 0.594 |
| NCI-H2405 | 0.778 |
| HCC-44 | 0.965 |
| A549 | 1.06 |
| NCI-H1299 | 1.1 |
| NCI-H1792 | 0.566 |

Same assay, conditions: first compound 2.53 µM

| Cell Line | relative viability |
| --- | --- |
| NCI-H1650 | 0.702 |
| EBC-1 | 0.191 |
| NCI-H1703 | 0.338 |
| SW 1573 | 0.56 |
| NCI-H838 | 0.622 |
| NCI-H2126 | 0.571 |
| EMC-BAC-2 | 0.916 |
| NCI-H2085 | 0.395 |
| Calu-6 | 0.57 |
| HCC-366 | 0.901 |
| NCI-H1666 | 0.749 |

From the supplement of paper PMC10307832
